The values that follow are results of earlier work, collected in patent publication US20030176421A1, “PROKINETIC AGENTS FOR TREATING GASTRIC HYPOMOTILITY AND RELATED DISORDERS” (priority 1999, published 2003).

No end group written: not given here.

In data set [1] the test system is pig gastric fundus.
Data set [2] has as its system guinea-pig gastric muscle. To be noted: without altering membrane potential significantly.
Data set [3] deals with canine colonic smooth muscle. To be noted: in the presence of forskolin; concentration dependent.
In data set [4] the test system is guinea pig ileum longitudinal muscle. To be noted: potentiation at lower doses, inhibition at higher concentrations for theophylline; entire concentration range for the others.
Data set [5] concerns isolated canine internal anal sphincter.
Data set [6] concerns sensitized guinea-pig colon.
Data set [7] relates to cat lower oesophageal sphincter. To be noted: for cAMP and cGMP levels after exposure: cat LOS; for relaxation of circular smooth muscle (LOS): cat.
Data set [8] has as its system human lower oesophageal sphincter.

`CC(C)Cn1c(=O)n(C)c(=O)c2[nH]cnc21` [IBMX, 3-isobutyl-1-methylxanthine]: the “relaxation of muscle strips” value in data set [1] was “induce concentration-dependent relaxations”. Moreover, in data set [2], the “effect on slow waves” value was “markedly reduce the frequency of slow waves”. For the same compound, in data set [3], the “potency order for decrease in carbachol-induced contractile activity” value (shortened to “potency order for decrease”) is listed as “rolipram>Ro 20-1724>isobutyl methylxanthine>SB 94120>siguazodan>zaprinast”.
For the compound `[N]=O` [NO, nitric oxide], the “increase in cGMP content” value in data set [1] was approximately 40 fold.
Consider `CCCCOc1cc(CC2CNC(=O)N2)ccc1OC` (centres unmarked) [Ro 20-1724], for which, in data set [3], the “potency order for decrease” value is listed as “rolipram>Ro 20-1724>isobutyl methylxanthine>SB 94120>siguazodan>zaprinast”.
Consider `COc1cc(C(=O)OCCCN2CCCN(CCCOC(=O)c3cc(OC)c(OC)c(OC)c3)CC2)cc(OC)c1OC` [dilazep], for which the “effect on contractile response to transmural cholinergic nerve stimulation” value (from here on “effect on contractile response”) in data set [4] is listed as “depression of the contractile responses”.
For the compound `OCCN(CCO)c1nc(N2CCCCC2)c2nc(N(CCO)CCO)nc(N3CCCCC3)c2n1` [dipyridamole], in data set [4], the “effect on contractile response” value is listed as “depression of the contractile responses”.
Regarding `C=C[C@@]1(C)CC(=O)[C@]2(O)[C@@]3(C)[C@@H](O)CCC(C)(C)[C@@H]3[C@H](O)[C@H](OC(C)=O)[C@@]2(C)O1` [forskolin], the “relaxation of muscle strips” value in data set [1] was “induce concentration-dependent relaxations”. Also, the “relaxation by intrinsic inhibitory neurons and associated cGMP elevation” value in data set [5] was “blocked”.
Take `COc1ccc(CN(CCN(C)C)c2ccccn2)cc1` [mepyramine]: the “initial rapid response of antigen-induced contraction” value in data set [6] was “blocked”.
With `O=S(=O)(Nc1cccc(OCc2ccc3ccccc3n2)c1)C(F)(F)F` [ritolukast], in data set [6], the “slower developing late contraction after antigen” value was “reduced”.
As to `COc1ccc(C2CNC(=O)C2)cc1OC1CCCC1` (centres unmarked) [rolipram], the “effect on slow waves” value in data set [2] is “markedly reduce the frequency of slow waves”. The “potency order for decrease” value in data set [3] is “rolipram>Ro 20-1724>isobutyl methylxanthine>SB 94120>siguazodan>zaprinast”.
On to `CN/C(=N\c1ccc(C2=NNC(=O)CC2C)cc1)NC#N` (centres unmarked) [siguazodan], for which, in data set [3], the “potency order for decrease” value is listed as “rolipram>Ro 20-1724>isobutyl methylxanthine>SB 94120>siguazodan>zaprinast”.
Turning to `Cn1c(=O)c2[nH]cnc2n(C)c1=O` [theophylline], the “effect on contractile response” value in data set [4] is “biphasic effect on cholinergic transmission”. The “effect on slow waves” value in data set [2] is on record as “markedly reduce the frequency of slow waves”.
Regarding `CCCOc1ccccc1-c1nc2[nH]nnc2c(=O)[nH]1` [zaprinast], in data set [1], the “relaxation of muscle strips” value was “induce concentration-dependent relaxations”. The “effect on NANC relaxations induced by electrical stimulation at intervals” value in data set [1] (circular, but not longitudinal muscle strips) was “increases the duration of the NANC relaxations”. Further, the “potency order for decrease” value in data set [3] was “rolipram>Ro 20-1724>isobutyl methylxanthine>SB 94120>siguazodan>zaprinast”.
helospectin: the “cAMP and cGMP levels after exposure” value in data set [7] is “both cAMP and cGMP levels were increased”.
For the compound “pituitary adenylate cyclase activating peptide [PACAP]”, in data set [8], the “relaxation of circular smooth muscle (LOS)” value (shortened to “relaxation … (LOS)”) was “induced concentration-dependent relaxations”. Moreover, in data set [7], the “relaxation … (LOS)” value was “induced concentration-dependent relaxations”; the “cAMP and cGMP levels after exposure” value was “both cAMP and cGMP levels were increased”.
As for “vasoactive intestinal peptide (HSDAVFTDNYTRLRKQMAVKKYLNSILN; ends and bridges not checked; UniProt P01282 125-152, looked up) [VIP]”, the “relaxation … (LOS)” value in data set [8] is listed as “induced concentration-dependent relaxations”. Besides, in data set [7], the “relaxation … (LOS)” value was “induced concentration-dependent relaxations”; the “cAMP and cGMP levels after exposure” value is “increase in cAMP levels only”.
